From PubChem BioAssay (NCI) come the findings set out here.

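96-well plates; 48 h exposure; 5 concentrations. Endpoints by linear interpolation between flanking doses. Not reached: highest tested concentration assigned. Abbreviation: GI50, concentration required for 50% inhibition of growth. Definition used: TGI = concentration required for complete inhibition of growth.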

Assay in all cases: NCI-60 cell line screen, 48 h
The subject of assay [1] is BT-549 breast.
Assay [2] has as its system HCC-2998 colon.
For assay [3], the system named is HCT-116 colon.
The subject of assay [4] is HL-60(TB) leukemia.
Assay [5] deals with NCI-H460 lung.
Assay [6] deals with SK-MEL-2 melanoma.
The test system of assay [7] is SK-OV-3 ovarian.
Assay [8] relates to SN12C renal.
Assay [9] concerns T-47D breast.
Assay [10] has as its system UACC-257 melanoma.

Turning to `CCOC(=O)c1ccc(C(=O)/C(C(C)=O)=C2\CCCN2C)n1C`, the TGI in assay [1] is more than 100 µM; in assay [2] it was more than 100 µM; in assay [3], more than 100 µM; in assay [4] it was 64.2 µM; in [5], more than 100 µM; in [6], more than 100 µM. Besides, the TGI in [7] is more than 100 µM; in assay [8], more than 100 µM; in [9], 92 µM; in assay [10] it was more than 100 µM.
As to `COc1ccc(C(SCCO)(c2ccccc2)c2ccccc2)cc1`, the TGI was found to be 32.4 µM in [1]; 31.1 µM in assay [2]; 23.7 µM in assay [3]; 67 µM in assay [4]; 27.5 µM in assay [5]; 28 µM in assay [6]. Besides, the TGI in [7] was found to be 34.8 µM; in assay [8] it was 28.4 µM; in assay [9], 27 µM; in assay [10], 32.7 µM.
On to `CCOC(=O)Cc1nc2sc(S(N)(=O)=O)nn2c1Br`, for which the TGI in [1] was 83.8 µM; in assay [2], 48.1 µM; in assay [3] it was 96.5 µM; in assay [4] it was more than 100 µM; in assay [5], more than 100 µM; in assay [6], more than 100 µM. The TGI in [7] is more than 100 µM; in assay [8], 52.5 µM; in [9] it was 70.8 µM; in [10], more than 100 µM.
As for `O=C/C=C/c1ccco1`, the TGI in [1], in [2], in assay [3], in assay [4], in assay [6] and in assay [7] was more than 100 µM in each case. Also, the TGI in assay [8], in assay [9] and in assay [10] was more than 100 µM in each case.
With `O=C(CCCCCCC(=O)Nc1cccnc1)NO`, the TGI in assay [1] was more than 100 µM; in assay [2], 54.5 µM; in [3], more than 100 µM; in [4] it was 31.6 µM; in [5] it was more than 100 µM; in assay [6], 17.9 µM. For the same compound, the TGI is more than 71.8 µM in assay [7], more than 38.8 µM in [8], 8.12 µM in [9] and 87.7 µM in [10].
As to `COc1ccc(OC)c(CC2CCc3nc(N)nc(N)c3C2)c1` (stereo unspecified), the TGI in assay [1] was 6.22 µM; in [2], more than 49.9 µM; in assay [3], more than 100 µM; in assay [4] it was more than 100 µM; in [5], more than 46 µM; in assay [6] it was 43.6 µM. In addition, the TGI in assay [7] is more than 100 µM; in assay [8], more than 100 µM; in [9], more than 68 µM; in assay [10] it was 34.4 µM.
Turning to `Cc1ccc(-n2[nH]nc(C#N)c2=O)cc1`, the TGI in assay [1], in assay [2], in assay [3], in assay [4], in [5] and in [6] was more than 100 µM in each case. Also, the TGI in assay [7], in assay [8], in [9] and in assay [10] was more than 100 µM in each case.
Regarding `O=C(/C=C/c1ccc(/C=C/C(=O)c2ccc(O)cc2)cc1)c1ccc(O)cc1`, the TGI in assay [1], in [2], in [3], in [4], in assay [5] and in [6] was more than 100 µM throughout. For the same compound, the TGI in [8], in assay [9] and in [10] was more than 100 µM each time.
For `CC(C)C1=CCC2C(=C1)CCC1C(C)(C(=O)O)CCCC21C` (stereo unspecified) (tested in a mixture with another compound), the TGI in assay [1], in [2], in assay [3], in assay [4], in assay [6] and in [7] was more than 100 µM each time. For the same compound, the TGI in assay [8], in [9] and in assay [10] was more than 100 µM throughout.
Take `O=C(O)c1cnc2[nH]ccn2c1=O`: the TGI in assay [1], in assay [2], in [3], in [4], in assay [5] and in assay [7] was more than 100 µM throughout. Also, the TGI in [8], in assay [9] and in [10] was more than 100 µM each time.
`CCOC(=O)C(Cl)(NC(=O)c1c(F)c(F)c(F)c(F)c1F)C(F)(F)F` (stereo unspecified): the TGI in assay [1], in [2], in assay [3], in assay [4], in assay [6] and in assay [7] was more than 100 µM throughout. Besides, the TGI in assay [8], in assay [9] and in assay [10] was more than 100 µM each time.
For the compound `Cn1c2ccccc2c2c(=O)[nH]c(=O)[nH]c21`, the TGI in assay [1], in assay [2], in [3], in [4], in assay [6] and in [7] was more than 100 µM each time. Moreover, the TGI in assay [8], in assay [9] and in assay [10] was more than 100 µM throughout.
As for `CSc1c(C#N)c(N)nc2c(N=Nc3ccc(Cl)cc3)c(N)nn12`, the TGI in assay [1] was 9.97 µM; in assay [2] it was 14.8 µM; in [4], 5.23 µM; in [5], more than 45.6 µM; in assay [6], 8.82 µM; in assay [7], 67.1 µM. In addition, the TGI in assay [8] came out at 8.1 µM; in [9], 3.86 µM; in assay [10] it was 10.2 µM.
Consider `CC1C2CC(C(S(=O)(=O)N3CCOCC3)/C2=N\O)C1(C)C` (stereo unspecified), for which the TGI in assay [1], in assay [2], in [3], in [4], in [5] and in assay [7] was more than 100 µM each time. Besides, the TGI in assay [8], in [9] and in assay [10] was more than 100 µM each time.
In the case of `COc1ccc(/C=C2\CCC(CNc3ccc(OC)cc3)C2=O)cc1` (stereo unspecified), the TGI in assay [1] was 26.8 µM; in assay [2], 48.1 µM; in [3], 23.2 µM; in assay [4], 17.5 µM; in assay [5], more than 85.3 µM; in [7], more than 100 µM. The TGI in assay [8] was 33.1 µM; in [9] it was 57.1 µM; in [10], 34.5 µM.
Take `COc1ccc2sc(-n3nc4ccccc4c3Nc3nc4ccc(OC)cc4s3)nc2c1`: the TGI was 14 µM in assay [1]; 5.47 µM in assay [2]; 5.95 µM in assay [3]; more than 38.9 µM in assay [5]; more than 52.4 µM in assay [6]; 7.47 µM in assay [7]. Besides, the TGI in [8] was determined as 18.5 µM; in [9], 5.64 µM; in assay [10], 19.5 µM.
Take `CC(=O)OCC1OC(SC2OC(COC(C)=O)C(OC(C)=O)C(OC(C)=O)C2OC(C)=O)C(OC(C)=O)C(OC(C)=O)C1OC(C)=O` (stereo unspecified): the TGI in assay [1], in assay [2], in assay [3], in [4], in assay [5] and in [7] was more than 100 µM throughout. For the same compound, the TGI in assay [8], in [9] and in [10] was more than 100 µM throughout.
Regarding `COC(=O)/C=C/c1ccc2c(c1)CC1(C2)Cc2cc3c(cc2C1=O)CCC3` (stereo unspecified), the TGI in assay [1], in assay [2], in assay [3], in assay [4], in assay [5] and in assay [6] was more than 100 µM each time. Moreover, the figures for the TGI in assay [8], in assay [9] and in assay [10] were more than 100 µM, 81.8 µM and more than 100 µM, respectively.
With `CCCCN1C(=O)c2c(-c3sccc3N)sc(-c3sccc3N)c2C1=O`, the TGI was more than 88.9 µM in [1]; more than 100 µM in [2]; more than 100 µM in [3]; more than 100 µM in assay [5]; more than 100 µM in assay [6]; 35.8 µM in [7]. For the same compound, the TGI in assay [8] was more than 55 µM; in assay [9], more than 100 µM; in assay [10], more than 100 µM.
On to `c1ccc2c(c1)ncn2C1CCCCO1` (stereo unspecified), for which the TGI in [1], in assay [2], in assay [3], in [4], in [6] and in assay [7] was more than 100 µM each time. In addition, the TGI in assay [8], in assay [9] and in assay [10] was more than 100 µM in each case.
On to `COc1cc(/C=C/C(=O)c2c(C)nc3ccccc3c2C)ccc1OCCCOc1cc2c(cc1OC)C(=O)N1CCC[C@H]1C=N2`, for which the GI50 in assay [1] was 0.0149 µM; in [2], 0.0183 µM; in assay [4], 0.0356 µM; in assay [5], 0.0292 µM; in assay [6] it was 0.0877 µM; in assay [7], 0.064 µM. Further, the figures for the GI50 in [8], in assay [9] and in assay [10] were 0.0353 µM, 0.041 µM and 0.0269 µM, respectively. Also, the TGI in assay [1] stood at 0.0428 µM; in assay [2] it was 0.0386 µM; in assay [6], 0.331 µM; in [7], 1.13 µM; in [8], 0.327 µM; in assay [10], 0.0838 µM.
